Measurements published in publication PMC6017193, “Structure-Based Discovery of a Series of 5H-Pyrrolo[2,3-b]pyrazine FGFR Kinase Inhibitors” (Molecules : A Journal of Synthetic Chemistry and Natural …, 2018).

Target: T1, FGFR1 (Homo sapiens, UniProt P11362)
T1 construct: purchased Millipore
Assay: ELISA kinase assay, FGFR1 enzymatic activity
Format: biochemical
Conditions: for inhibition at 10 µM / inhibition at 5 µM / inhibition at 0.01 µM / inhibition at 0.1 µM / inhibition at 1 µM / FGFR1 Inhibition (%): mean of two separate experiments
Protocol: The effects of compounds on the activities of indicated (FGFR1 and c-Met) kinases were determined using enzyme-linked immunosorbent assays (ELISAs) with purified recombinant proteins. Briefly, 20 μg/mL poly (Glu, Tyr)4:1 (Sigma, St. Louis, MO, USA) was precoated in 96-well plates as a substrate. A 50-μL aliquot of 10 μmol/L ATP solution diluted in kinase reaction buffer (50 mmol/L HEPES (pH 7.4), 50 mmol/L MgCl2, 0.5 mmol/L MnCl2, 0.2 mmol/L Na3VO4, and 1 mmol/L DTT) was added to each well; 1 μL of various concentrations of compounds diluted in 1% DMSO (v/v) (Sigma) were then added to each reaction well. DMSO (1%, v/v) was used as the negative control. The kinase reaction was initiated by the addition of purified tyrosine kinase proteins FGFR1 (Millipore, Darmstadt, Germany) or c-Met (Millipore) diluted in 49 μL of kinase reaction buffer. After incubation for 60 min at 37 °C, the plate was washed three times with phosphate-buffered saline (PBS) containing 0.1% Tween 20 (T-PBS). Anti-phosphotyrosine (PY99) antibody (Sanra Cruz, Dallas, TX, USA) (100 μL; 1:500, diluted in 5 mg/mL bovine serum albumin (BSA) T-PBS) was then added. After a 30-min incubation at 37 °C, the plate was washed three times, and 100 μL of horseradish peroxidase-conjugated goat anti-mouse IgG (Calbiochem, Shanghai, China) (1:2000, diluted in 5 mg/mL BSA T-PBS) was added. The plate was then incubated at 37 °C for 30 min, and washed three times. A 100-μL aliquot of a solution containing 0.03% H2O2 and 2 mg/mL o-phenylenediamine in 0.1 mol/L citrate buffer (pH 5.5) was added. The reaction was terminated by the addition of 50 μL of 2 mol/L H2SO4 as the color changed, and the plate was analyzed using a multi-well spectrophotometer (SpectraMAX 190, Molecular Devices, Palo Alto, CA, USA) at 490 nm. The inhibition rate (%) was calculated using the following equation:IR = [1 − (A490/A490control)] × 100%.(1) where IR, A490, and A490control are the inhibition rate, the absorbance value of the tested compound at 490 nm, and the absorbance value of the negative control compound at 490 nm, respectively. The IC50 values were calculated from the inhibition curves in two separate experiments.

T1 sequence (P11362 22-822): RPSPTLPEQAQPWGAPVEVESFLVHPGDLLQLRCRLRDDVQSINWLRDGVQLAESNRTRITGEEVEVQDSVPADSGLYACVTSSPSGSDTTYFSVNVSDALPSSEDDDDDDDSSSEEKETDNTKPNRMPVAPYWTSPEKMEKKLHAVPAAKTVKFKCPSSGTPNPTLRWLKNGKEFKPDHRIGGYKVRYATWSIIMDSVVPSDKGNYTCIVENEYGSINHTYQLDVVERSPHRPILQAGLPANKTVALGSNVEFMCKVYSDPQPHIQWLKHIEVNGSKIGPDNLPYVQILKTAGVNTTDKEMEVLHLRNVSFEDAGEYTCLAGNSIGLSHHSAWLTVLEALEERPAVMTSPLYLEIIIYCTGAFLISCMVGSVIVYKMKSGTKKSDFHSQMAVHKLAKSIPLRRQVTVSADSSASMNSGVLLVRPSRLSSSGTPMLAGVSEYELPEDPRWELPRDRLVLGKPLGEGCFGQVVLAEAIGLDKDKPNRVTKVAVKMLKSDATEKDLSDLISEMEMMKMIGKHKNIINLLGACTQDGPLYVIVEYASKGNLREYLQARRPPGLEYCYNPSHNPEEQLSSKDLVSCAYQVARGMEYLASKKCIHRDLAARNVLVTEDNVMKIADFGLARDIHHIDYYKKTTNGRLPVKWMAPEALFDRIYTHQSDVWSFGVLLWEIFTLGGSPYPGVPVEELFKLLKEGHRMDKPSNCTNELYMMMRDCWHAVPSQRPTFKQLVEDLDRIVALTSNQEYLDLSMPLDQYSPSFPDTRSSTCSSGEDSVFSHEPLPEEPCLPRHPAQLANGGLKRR

Row | Molecule | inhibition at 0.01 µM (0.01 μM (10 nM)) [%] | inhibition at 0.1 µM (0.1 μM) [%] | inhibition at 1 µM (1 μM) [%] | further results
1 | Cn1cc(-c2cnc3cnn(S(=O)(=O)c4c(Cl)nc5sccn45)c3c2)cn1 [Compound 5, 6-chloro-5-((6-(1-methyl-1H-pyrazol-4-yl)-1H-pyrazolo[4,3-b]pyridin-1-yl)sulfonyl)imidazo[2,1-b]thiazole] |  |  |  | inhibition at 10 µM: > 50%
2 | Cn1cnc(S(=O)(=O)n2ccc3ncc(-c4cnn(C)c4)nc32)c1 [Compound 11, 5-((1-Methyl-1H-imidazol-4-yl)sulfonyl)-3-(1-methyl-1H-pyrazol-4-yl)-5H-pyrrolo[2,3-b]pyrazine] |  |  |  | inhibition at 5 µM: 58.1%; inhibition at 10 µM: 86%
3 | Methyl 2-(4-(5-((1-(2-fluoroethyl)-1H-imidazol-4-yl)sulfonyl)-5H-pyrrolo[2,3-b]pyrazin-3-yl)-1H-pyrazol-1-yl)acetate [Compound 17] |  |  |  | FGFR1 Inhibition (%) (0.01 μM (10 nM)): −3.3%; FGFR1 Inhibition (%) (0.1 μM): 15.6%; FGFR1 Inhibition (%) (1 μM): 56.8%
4 | Cn1cc(-c2cnc3ccn(S(=O)(=O)c4cnn5cccnc45)c3n2)cn1 [Compound 10, 3-(1-Methyl-1H-pyrazol-4-yl)-5-(pyrazolo[1,5-a]pyrimidin-3-ylsulfonyl)-5H-pyrrolo[2,3-b]pyrazine] |  |  |  | inhibition at 5 µM: 77%; inhibition at 10 µM: 91%
5 | CC(=O)Cn1cc(-c2cnc3ccn(S(=O)(=O)c4cn(CCF)cn4)c3n2)cn1 [Compound 18, 1-(4-(5-((1-(2-Fluoroethyl)-1H-imidazol-4-yl)sulfonyl)-5H-pyrrolo[2,3-b]pyrazin-3-yl)-1H-pyrazol-1-yl)propan-2-one] | 24.6 | 13.3 | 22.6 | 
6 | Cn1cc(-c2cnc3ccn(S(=O)(=O)c4cn(CCF)cn4)c3n2)cn1 [Compound 12, 5-((1-(2-Fluoroethyl)-1H-imidazol-4-yl)sulfonyl)-3-(1-methyl-1H-pyrazol-4-yl)-5H-pyrrolo[2,3-b]pyrazine] |  |  |  | inhibition at 5 µM: 68.9%; inhibition at 10 µM: 89%
7 | CCC(=O)n1cc(-c2cnc3ccn(S(=O)(=O)c4cn(CCF)cn4)c3n2)cn1 [Compound 16, 1-(4-(5-((1-(2-Fluoroethyl)-1H-imidazol-4-yl)sulfonyl)-5H-pyrrolo[2,3-b]pyrazin-3-yl)-1H-pyrazol-1-yl)propan-1-one] | 15.1 | 55.8 | 94.6 | 
8 | O=S(=O)(c1cn(CCF)cn1)n1ccc2ncc(-c3cnn(C4CC4)c3)nc21 [Compound 14, 3-(1-Cyclopropyl-1H-pyrazol-4-yl)-5-((1-(2-fluoroethyl)-1H-imidazol-4-yl)sulfonyl)-5H-pyrrolo[2,3-b]pyrazine] | 4.7 | 2.2 | 2.8 | FGFR1 activity (in words) (FGFR1 enzymatic activity, Table 3): lost the FGFR1 activity
9 | CC(=O)n1cc(-c2cnc3ccn(S(=O)(=O)c4cn(CCF)cn4)c3n2)cn1 [Compound 15, 1-(4-(5-((1-(2-fluoroethyl)-1H-imidazol-4-yl)sulfonyl)-5H-pyrrolo[2,3-b]pyrazin-3-yl)-1H-pyrazol-1-yl)ethan-1-one] | 35.9 | 25.9 | 70.9 | 
10 | Cn1cc(-c2cnc3ccn(S(=O)(=O)c4c(Cl)nc5sccn45)c3n2)cn1 [Compound 9, 6-Chloro-5-((3-(1-methyl-1H-pyrazol-4-yl)-5H-pyrrolo[2,3-b]pyrazin-5-yl)sulfonyl)imidazo[2,1-b]thiazole] |  |  |  | inhibition at 5 µM: 83.7%; inhibition at 10 µM: 92.5%

More lines, main results first:

Row | inhibition at 0.01 µM (0.01 μM (10 nM)) [%] | inhibition at 0.1 µM (0.1 μM) [%] | inhibition at 1 µM (1 μM) [%] | Molecule | further results
11 | 7.2 | 5.4 | 49.6 | CCOC(=O)Cn1cc(-c2cnc3ccn(S(=O)(=O)c4cn(CCF)cn4)c3n2)cn1 [Compound 20, Ethyl 2-(4-(5-((1-(2-fluoroethyl)-1H-imidazol-4-yl)sulfonyl)-5H-pyrrolo[2,3-b]pyrazin-3-yl)-1H-pyrazol-1-yl)acetate] | 
12 | 16.6 | 13.5 | 29.5 | O=S(=O)(c1cn(CCF)cn1)n1ccc2ncc(-c3cnn(S(=O)(=O)C4CC4)c3)nc21 [Compound 24, 3-(1-(Cyclopropylsulfonyl)-1H-pyrazol-4-yl)-5-((1-(2-fluoroethyl)-1H-imidazol-4-yl)sulfonyl)-5H-pyrrolo[2,3-b]pyrazine] | 
13 | 20.9 | 37.1 | 82.3 | CS(=O)(=O)n1cc(-c2cnc3ccn(S(=O)(=O)c4cn(CCF)cn4)c3n2)cn1 [Compound 23, 5-((1-(2-Fluoroethyl)-1H-imidazol-4-yl)sulfonyl)-3-(1-(methylsulfonyl)-1H-pyrazol-4-yl)-5H-pyrrolo[2,3-b]pyrazine] | 
14 | 7.3 | 12 | 40.7 | COC(=O)Cn1cc(-c2cnc3ccn(S(=O)(=O)c4cn(CCF)cn4)c3n2)cn1 [Compound 19, Methyl 2-(4-(5-((1-(2-fluoroethyl)-1H-imidazol-4-yl)sulfonyl)-5H-pyrrolo[2,3-b]pyrazin-3-yl)-1H-pyrazol-1-yl)acetate] | 
15 |  | 26.4 | 73.9 | O=S(=O)(c1cnn2cccnc12)n1ccc2ncc(-c3cn[nH]c3)nc21 [Compound 34, 3-(1H-Pyrazol-4-yl)-5-(pyrazolo[1,5-a]pyrimidin-3-ylsulfonyl)-5H-pyrrolo[2,3-b]pyrazine] | 
16 | 19.9 | 43.8 | 82.4 | CNC(=O)Cn1cnc(S(=O)(=O)n2ccc3ncc(-c4cn[nH]c4)nc32)c1 [Compound 33, 2-(4-((3-(1H-Pyrazol-4-yl)-5H-pyrrolo[2,3-b]pyrazin-5-yl)sulfonyl)-1H-imidazol-1-yl)-N-methylacetamide] | 
17 | 12.5 | 14.9 | 65.6 | CNC(=O)Cn1cc(-c2cnc3ccn(S(=O)(=O)c4cn(CCF)cn4)c3n2)cn1 [Compound 21, 2-(4-(5-((1-(2-Fluoroethyl)-1H-imidazol-4-yl)sulfonyl)-5H-pyrrolo[2,3-b]pyrazin-3-yl)-1H-pyrazol-1-yl)-N-methylacetamide] | 
18 | 40.4 | 77.1 | 94.5 | CC(C)n1cnc(S(=O)(=O)n2ccc3ncc(-c4cn[nH]c4)nc32)c1 [Compound 30] | 
19 | 31.8 | 68.7 | 90.6 | O=S(=O)(c1cnc2cccnn12)n1ccc2ncc(-c3cn[nH]c3)nc21 [Compound 35, 5-(Imidazo[1,2-b]pyridazin-3-ylsulfonyl)-3-(1H-pyrazol-4-yl)-5H-pyrrolo[2,3-b]pyrazine] | 
20 | 13.9 | 19.9 | 37.1 | CC(C)Cn1cnc(S(=O)(=O)n2ccc3ncc(-c4cn[nH]c4)nc32)c1 [Compound 31, 5-((1-Isobutyl-1H-imidazol-4-yl)sulfonyl)-3-(1H-pyrazol-4-yl)-5H-pyrrolo[2,3-b]pyrazine] | 
21 | 23.5 | 46.5 | 83 | COC(=O)C(C(=O)OC)n1cc(-c2cnc3ccn(S(=O)(=O)c4cn(CCF)cn4)c3n2)cn1 [Compound 25, Dimethyl 2-(4-(5-((1-(2-fluoroethyl)-1H-imidazol-4-yl)sulfonyl)-5H-pyrrolo[2,3-b]pyrazin-3-yl)-1H-pyrazol-1-yl)malonate] | 
22 | 26.8 | 33.6 | 69 | CCOC(=O)C(C(=O)OCC)n1cc(-c2cnc3ccn(S(=O)(=O)c4cn(CCF)cn4)c3n2)cn1 [Compound 26, Diethyl 2-(4-(5-((1-(2-fluoroethyl)-1H-imidazol-4-yl)sulfonyl)-5H-pyrrolo[2,3-b]pyrazin-3-yl)-1H-pyrazol-1-yl)malonate] | 
23 | 4.9 | 20.1 | 71.7 | O=S(=O)(c1cn(C2CCCC2)cn1)n1ccc2ncc(-c3cn[nH]c3)nc21 [Compound 32, 5-((1-Cyclopentyl-1H-imidazol-4-yl)sulfonyl)-3-(1H-pyrazol-4-yl)-5H-pyrrolo[2,3-b]pyrazine] | 
24 | 0.4 | 2.5 | 15.3 | CN(C)C(=O)Cn1cc(-c2cnc3ccn(S(=O)(=O)c4cn(CCF)cn4)c3n2)cn1 [Compound 22, 2-(4-(5-((1-(2-Fluoroethyl)-1H-imidazol-4-yl)sulfonyl)-5H-pyrrolo[2,3-b]pyrazin-3-yl)-1H-pyrazol-1-yl)-N,N-dimethylacetamide] | 
